Experimental data as given in patent US20070227930A1, “Antimicrobial Product Combination” (priority 2006, published 2007).

Tested on: allergens
Experiment: Evaluation of oxidants and antimicrobials for allergen deactivating ability
Details: very dilute solution, on the order of 40-80 ppm
Source text: Presumably the low levels of oxidant are still able to break up the allergen proteins, rendering them biologically inert.

## OCl [hypochlorous acid]
  Allergen deactivating ability: effectively deactivate allergens
